{"source": "paper PMC6021032", "about": "“Antimycobacterial activity of nitrogen heterocycles derivatives: 7-(pyridine-4-yl)-indolizine derivatives. Part VII^8–12” (Journal of Enzyme Inhibition and Medicinal Chemistry, 2017)", "test_system": "THP-1 cell line infected with Mtb", "test": "Intracellular activity assay, luminescence", "format": "cell-based, Mycobacterium tuberculosis", "conditions": "Mycobacterium tuberculosis, Mtb-infected THP-1 cells, 72 h", "protocol": "Since the overall efficacy of any anti TB drug will be improved by its ability to traffic into the macrophage phagosome containing replicating bacteria, we evaluated the intracellular activity of compounds[24]. This was measured by using THP-1 cell line infected with Mtb. Infected cells were exposed to compounds for 72 h and viable bacterial counts were measured using luminescence as a measure of intracellular growth.\nAssay (Promega) which uses ATP as an indicator of cell viability. Relative luminescent units (RLU) were measured using a Biotek Synergy 4 plate reader. The dose response curve was fitted using the Levenberg–Marquardt algorithm. The IC50 was defined as the compound […]\nIntracellular Activity Assay\nThe activity of compounds against intracellular bacteria was determined by measuring viability in infected THP-1 cell after 3 days in the presence of test compounds. Compounds were prepared as 10-point three-fold serial dilutions in DMSO. The highest concentration of […]\nTHP-1 cells were cultured in complete RPMI and differentiated into macrophage-like cells using 80 nM PMA overnight at 37°C, 5% CO2. THP-1 cells were infected with a luminescent strain of H37Rv (which constitutively expresses luxABCDE) at a multiplicity of infection of 1 and incubated overnight at 37°C, 5% CO2. Infected cells were recovered using Accutase/EDTA solution, washed twice with PBS to remove extracellular bacteria and seeded into assay pates. Compound dilutions were added to a final DMSO concentration of 0.5%.\nAssay plates were incubated for 72 h at 37°C, 5% CO2. Each run included isoniazid as a control. Relative luminescent units (RLU) were measured using a Biotek Synergy 2 plate reader. The dose response curve was fitted using the Levenberg–Marquardt algorithm. The […]\ninhibition of growth respectively.\n3. Cycle 3 – Absorption, distribution, metabolism, excretion and toxicity (ADMET)\n3.1. Plasma Protein Binding Assay\nCompounds were added to human plasma at a fixed concentration of 5 µM. The mixture was dialyzed in a RED device (Rapid Equilibrium Dialysis, Pierce) against PBS and incubated on an orbital shaker for 4 h at 37 °C. Aliquots from plasma and PBS sides were collected; an equal volume of PBS was added to the plasma sample, and an equal volume of plasma was added to the PBS sample. Three volumes of methanol (containing the internal binding standard propranolol) was added to precipitate the proteins and release the compound.\nEach compound was tested in duplicate. Samples were centrifuged, the supernatant was […]", "data": [{"smiles": "CCOC(=O)c1cc(C(=O)c2ccc(Cl)cc2)n2ccc(-c3cc[n+](CC(=O)c4ccc(C)cc4)cc3)cc12", "note": "[Compound 6i]", "values": [{"measurement": "IC50", "setting": "read-out: IC50 intracell", "value": 10, "unit": "µM"}, {"measurement": "IC90", "setting": "read-out: IC90 intracell", "value": 48, "unit": "µM"}]}]}
